# Experiments:
# UBE3A-AS [1] = test: UBE3A-AS RNA levels in CNS regions of Cynomolgus macaque after intrathecal lumbar puncture (SYBR Green qRT-PCR); format: in vivo, Cynomolgus macaque (Macaca fascicularis); conditions: for UBE3A-AS RNA levels in CNS regions (in words) / Cohen's d, effect size on UBE3A-AS RNA levels in CNS: 10 mg single intrathecal bolus, 28 days; for Difference in UBE3A-AS RNA levels relative to vehicle: Cynomolgus macaque, single 10 mg intrathecal lumbar puncture, 28 days after treatment
# Procedure: The ASO-4 and ASO-6 target regions are conserved across several non-human primate (NHP) species, thus enabling both safety and efficacy studies in a large animal model. To examine the efficacy of ASO-4.4.PS.L and ASO-6.1.PO-1.O in the central nervous system (CNS), ASOs were delivered to Cynomolgus macaques by intrathecal lumbar puncture. Animals were administered a single bolus injection of vehicle (0.9% saline, n=5), ASO-6.1.PO-1.O (10 mg, n=3), and ASO.4.4.PS.L (10 mg, n=3). Twenty-eight days following treatment, central nervous (CNS) tissues were collected and the steady state RNA levels of UBE3A-AS were measured.
# NHP studies were performed at Northern Biomedical Research and Charles River Laboratories using protocols approved by the institutions respective Institutional Animal Care and Use Committees. Male and female Cynomolgus macaques (Macaca fascicularis) weighing 2-4 kg were anesthetized and single 1 mL dose of ASO or vehicle was administered via intrathecal lumbar puncture. The dosing solution was prepared by dissolution of lyophilized ASO in the vehicle control article (0.9% sodium chloride) and was filtered through a 0.2-μm filter. CNS and spinal cord samples were harvested, and the CNS was sectioned into 4-mm coronal slices. Tissue samples were flash frozen and stored at −80° C. until RNA isolation.
# A 4 mm tissue punch was taken from each region of interest of which approximately half was used for RNA isolation. RNA isolation was performed using the Qiagen RNeasy Plus Mini kit (74136, Qiagen) with tissue disruption and lysis performed with 5 mm stainless steel beads in a TissueLyser II. The RNA was eluted in two volumes of 30 μl water, for a total elution volume of 60 μl. RNA was quantified using the Qubit with the RNA XR assay (Q33224, Thermo Fisher Scientific). cDNA was synthesized from 2 μg of input RNA using the High Capacity RNA-to-cDNA kit (4387406, Thermo Fisher Scientific) in a total reaction volume of 50 μl.
# Cynomolgus macaque UBE3A-AS RNA levels were estimated using SYBR Green quantitative reverse-transcription PCR (qRT-PCR). Total reaction volume was 10 μl, including 2 μl of cDNA, 1× PowerUp SYBR Green Master mix (A25741, Thermo Fisher Scientific), and 500 nM of each primer (forward and reverse). Cycling conditions were 2 minutes at 50° C., 2 minutes at 95° C., and 40 cycles of 15 seconds at 95° C. and 1 minute at 60° C., with readings taken at the 60° C. step of every cycle. Reactions were run on a BIO-RAD T1000 CFX96 thermocycler, with internal control (PPIA, forward: […] (SEQ ID NO:503); reverse: […] (SEQ ID NO:504)) and target (UBE3A-AS, forward: […] (SEQ ID NO:505); reverse: […] (SEQ ID NO:506)) reactions performed separately. Data was retrieved and initial analysis was done with the BIORAD CFX Maestro software, with in depth statistical analyses performed with Excel and JMP.
# UBE3A-AS [2] = test: UBE3A-AS steady state RNA (TaqMan qRT-PCR) in GABAergic iPSC-derived neurons; format: cell-based, human; conditions: for Relative Potency: relative to ASO-4.4.PS.L = 1
# [3] = Frontal Cortex (Corona radiata)
# [4] = Cluster 1 ASOs, 18 DIV to 24 DIV, parallel model, 4 Parameter logistic (Hill)
# [5] = candidate ASOs, 18 DIV to 24 DIV
# [6] = candidate ASOs, 18 DIV to 24 DIV, 4-parameter logistic (Hill)
# [7] = candidate ASOs, treated 18 DIV, RNA 24 DIV, 10-point dose curve, n=2, full model, 4-parameter logistic (Hill)
Substance,UBE3A-AS RNA levels in CNS regions (in words) (UBE3A-AS [1]),"Cohen's d, effect size on UBE3A-AS RNA levels in CNS (UBE3A-AS [1]; versus Vehicle)",Difference in UBE3A-AS RNA levels relative to vehicle (UBE3A-AS [1]; Caudate Nucleus),Difference in UBE3A-AS RNA levels relative to vehicle (UBE3A-AS [1]; Cerebellum),Difference in UBE3A-AS RNA levels relative to vehicle (UBE3A-AS [1]; [3]),Difference in UBE3A-AS RNA levels relative to vehicle (UBE3A-AS [1]; Frontal cortex),Difference in UBE3A-AS RNA levels relative to vehicle (UBE3A-AS [1]; Globus Pallidus),Difference in UBE3A-AS RNA levels relative to vehicle (UBE3A-AS [1]; Hippocampus),Difference in UBE3A-AS RNA levels relative to vehicle (UBE3A-AS [1]; Medulla),Difference in UBE3A-AS RNA levels relative to vehicle (UBE3A-AS [1]; Motor Cortex),Difference in UBE3A-AS RNA levels relative to vehicle (UBE3A-AS [1]; Oculomotor Nucleus),Difference in UBE3A-AS RNA levels relative to vehicle (UBE3A-AS [1]; Pons),Difference in UBE3A-AS RNA levels relative to vehicle (UBE3A-AS [1]; Putamen),Difference in UBE3A-AS RNA levels relative to vehicle (UBE3A-AS [1]; Spinal Cord (Lumbar)),Difference in UBE3A-AS RNA levels relative to vehicle (UBE3A-AS [1]; Temporal Lobe),Difference in UBE3A-AS RNA levels relative to vehicle (UBE3A-AS [1]; Thalamus),IC50 (UBE3A-AS [2]; [4]) [nM],"Relative Potency (UBE3A-AS [2]; Cluster 1 ASOs, parallel model)","30 μM (Mean), normalized UBE3A-AS RNA level relative to vehicle (UBE3A-AS [2]; [5])",Emax (normalized UBE3A-AS RNA level relative to vehicle) (UBE3A-AS [2]; [6]),also measured
C^O*U^O*G^O*G^O-t*g*t*c*a*a*c*a*a*g-C^O*C^O*A^O*A^o [ASO-6.1.PO-1.O],"reduced UBE3A-AS RNA levels in most CNS regions, with large effects observed in pons, oculomotor nucleus, and lumbar spinal cord",0.3,0.10,−0.11,−0.08,0.01,0.10,−0.19,−0.24,−0.19,−0.37,−0.27,0.07,−0.32,0.13,−0.02,199,0.3,0.04,−0.1,"IC50 Ratio relative to ASO-4.4.PS.L (UBE3A-AS [2]; Cluster 1 ASOs, equivalence, two one-sided tests): 0.86; Limit Exceeded (equivalence of IC50 relative to ASO-4.4.PS.L) (UBE3A-AS [2]; Cluster 1 ASOs, two one-sided tests): Lower; IC50 (UBE3A-AS [2]; [7]): 315 nM"
"A^L*G^L*A^L*a*t*g*g*c*a*c*a*t*c*t*5mC^L*T^L*T^L*G^L (NNNATGGCACATCTNNNN; LNA gapmer, PS, 5-methylcytosine, chemistry not fully specified) [ASO-4.4.PS.L]","reduced UBE3A-AS RNA in most CNS regions, with large effects in temporal lobe, primary motor cortex, pons, medulla, hippocampus, globus pallidus, frontal cortex (corona radiata), prefrontal cortex, and lumbar spinal cord",1.4,−0.21,−0.05,−0.62,−0.71,−0.38,−0.57,−0.32,−0.59,−0.18,−0.47,−0.04,−0.87,−0.59,−0.20,50.3,1,0.05,0.0,"Cohen's d, effect size on UBE3A-AS RNA levels in CNS (UBE3A-AS [1]; versus ASO-6.1.PO-1.O): 1.0; IC50 (UBE3A-AS [2]; [7]): 26.6 nM"

# — patent publication US11198869B2, “Angelman syndrome antisense treatment” (The Texas A&M University System, priority 2017, dated 2021)
